# Read-outs that look alike come from different tables or passages of the source.
# What was measured:
# P70S6K (T412E mutant) = P70S6K (T412E mutant) (Homo sapiens (Human), UniProt P23443, T412E); assay: P70S6K enzyme assay; assay type: biochemical
# How it was run: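 Read-out is the substrate/phosphopeptide ratio from mobility-shift electrophoresis on a LabChip 3000.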
# His-AKT (Full Length) = His-AKT (Full Length) (Homo sapiens (Human), UniProt P31749); assay: AKT enzyme assay; assay type: biochemical
# Chain of His-AKT (Full Length) (P31749 whole entry): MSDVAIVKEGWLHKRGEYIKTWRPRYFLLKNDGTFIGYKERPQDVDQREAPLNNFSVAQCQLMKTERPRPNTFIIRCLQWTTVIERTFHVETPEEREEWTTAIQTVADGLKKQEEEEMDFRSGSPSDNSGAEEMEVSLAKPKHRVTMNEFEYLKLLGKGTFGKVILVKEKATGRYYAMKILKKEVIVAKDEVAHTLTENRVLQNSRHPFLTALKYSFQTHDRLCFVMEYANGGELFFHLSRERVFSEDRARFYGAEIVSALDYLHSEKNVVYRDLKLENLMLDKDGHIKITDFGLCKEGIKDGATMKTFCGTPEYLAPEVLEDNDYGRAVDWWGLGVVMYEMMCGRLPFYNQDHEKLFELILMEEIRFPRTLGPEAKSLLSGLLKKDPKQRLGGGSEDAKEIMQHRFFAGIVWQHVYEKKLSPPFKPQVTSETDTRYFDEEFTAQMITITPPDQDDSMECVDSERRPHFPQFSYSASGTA
# Chain of P70S6K (T412E mutant) (P23443 whole entry T412E): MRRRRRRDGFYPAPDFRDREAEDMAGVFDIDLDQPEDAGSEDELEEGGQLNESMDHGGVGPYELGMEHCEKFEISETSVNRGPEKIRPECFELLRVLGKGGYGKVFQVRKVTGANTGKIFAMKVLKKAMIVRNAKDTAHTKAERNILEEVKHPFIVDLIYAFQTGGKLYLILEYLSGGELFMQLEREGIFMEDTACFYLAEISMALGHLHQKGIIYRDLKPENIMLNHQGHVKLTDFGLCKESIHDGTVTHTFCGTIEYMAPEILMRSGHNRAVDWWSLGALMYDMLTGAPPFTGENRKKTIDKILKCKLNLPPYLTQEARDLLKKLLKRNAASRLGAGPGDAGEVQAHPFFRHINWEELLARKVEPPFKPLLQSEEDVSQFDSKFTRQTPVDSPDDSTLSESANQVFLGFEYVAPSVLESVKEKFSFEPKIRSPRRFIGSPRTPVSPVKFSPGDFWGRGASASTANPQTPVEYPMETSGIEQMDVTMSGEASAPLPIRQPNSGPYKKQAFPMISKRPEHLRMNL
SMILES,IC50 (P70S6K (T412E mutant); read-out: IC50 p70S6K),IC50 (His-AKT (Full Length); read-out: IC50 AKT),IC50 (P70S6K (T412E mutant); read-out: IC50 (p70S6K enzyme)),IC50 (His-AKT (Full Length); read-out: IC50 (AKT enzyme))
"N#Cc1c(N)ncnc1N1CCC(c2nc(-c3ccc(F)c(C(F)(F)F)c3)cn2CC2CNC2)CC1 [Compound 141, 4-amino-6-(4-(1-(azetidin-3-ylmethyl)-4-(4-fluoro-3-(trifluoromethyl)phenyl)-1H-imidazol-2-yl)piperidin-1-yl)pyrimidine-5-carbonitrile]",13 nM,64.5 nM,,
"N#Cc1c(N)ncnc1N1CCC(c2nc(-c3ccc(F)c(C(F)(F)F)c3)cn2C2CNC2)CC1 [Compound 142, 4-amino-6-(4-(1-(azetidin-3-yl)-4-(4-fluoro-3-(trifluoromethyl)phenyl)-1H-imidazol-2-yl)piperidin-1-yl)pyrimidine-5-carbonitrile]",6.4 nM,240 nM,,
"NC(=O)c1c(N)ncnc1N1CCC(c2nc(-c3ccc(F)c(C(F)(F)F)c3)cn2C2CNC2)CC1 [Compound 143, 4-amino-6-(4-(1-(azetidin-3-yl)-4-(4-fluoro-3-(trifluoromethyl)phenyl)-1H-imidazol-2-yl)piperidin-1-yl)pyrimidine-5-carboxamide]",16 nM,670 nM,,
"NC(=O)c1c(N)ncnc1N1CCC(c2nc(-c3cn[nH]c3)cn2CCN2CCC2)CC1 [Compound 145, 4-amino-6-(4-(1-(2-(azetidin-1-yl)ethyl)-4-(1H-pyrazol-4-yl)-1H-imidazol-2-yl)piperidin-1-yl)pyrimidine-5-carboxamide]",53 nM,2200 nM,,
"NC(=O)c1c(N)ncnc1N1CCC(c2nc(-c3ccc(F)c(C(F)(F)F)c3)cn2C[C@@H]2CCN2)CC1 [Compound 150, (S)-4-amino-6-(4-(1-(azetidin-2-ylmethyl)-4-(4-fluoro-3-(trifluoromethyl)phenyl)-1H-imidazol-2-yl)piperidin-1-yl)pyrimidine-5-carboxamide]",10 nM,220 nM,,
"CCc1c(N)ncnc1N1CCC(c2nc(-c3ccc(F)c(C(F)(F)F)c3)cn2C[C@@H]2CCN2)CC1 [Compound 152, (S)-6-(4-(1-(azetidin-2-ylmethyl)-4-(4-fluoro-3-(trifluoromethyl)phenyl)-1H-imidazol-2-yl)piperidin-1-yl)-5-ethylpyrimidin-4-amine]",5.2 nM,280 nM,,
"NC(=O)c1c(N)ncnc1N1CCC(c2nc(-c3ccc(F)c(C(F)(F)F)c3)cn2CC2CCCN2)CC1 (centres unmarked) [Compound 153, 4-amino-6-(4-(4-(4-fluoro-3-(trifluoromethyl)phenyl)-1-(pyrrolidin-2-ylmethyl)-1H-imidazol-2-yl)piperidin-1-yl)pyrimidine-5-carboxamide]",10 nM,220 nM,,
"CN1CC(Cn2cc(-c3ccc(F)c(C(F)(F)F)c3)nc2C2CCN(c3ncnc(N)c3C(N)=O)CC2)C1 [Compound 156, 4-amino-6-(4-(4-(4-fluoro-3-(trifluoromethyl)phenyl)-1-((1-methylazetidin-3-yl)methyl)-1H-imidazol-2-yl)piperidin-1-yl)pyrimidine-5-carboxamide]",4.9 nM,81 nM,,
"Cc1cc(-c2cn(CCO)c(C3CCN(c4ncnc(N)c4-c4cn[nH]c4)CC3)n2)ccc1F [Compound 160, 2-(2-(1-(6-amino-5-(1H-pyrazol-4-yl)pyrimidin-4-yl)piperidin-4-yl)-4-(4-fluoro-3-methylphenyl)-1H-imidazol-1-yl)ethanol]",6.7 nM,670 nM,,
"Cc1cc(-c2cn(CCNC3CC3)c(C3CCN(c4ncnc(N)c4-c4cn[nH]c4)CC3)n2)ccc1F [Compound 161, 6-(4-(1-(2-(cyclooropylamino)ethyl)-4-(4-fluoro-3-methylphenyl)-1H-imidazol-2-yl)piperidin-1-yl)-5-(1H-pyrazol-4-yl)pyrimidin-4-amine]",12.9 nM,150 nM,12.9 nM,150 nM
"CNCCn1cc(-c2ccc(F)c(C)c2)nc1C1CCN(c2ncnc(N)c2-c2cn[nH]c2)CC1 [Compound 162, 6-(4-(4-(4-fluoro-3-methylphenyl)-1-(2-(methylamino)ethyl)-1H-imidazol-2-yl)piperidin-1-yl)-5-(1H-pyrazol-4-yl)pyrimidin-4-amine]",5.9 nM,21 nM,,
"CNCCn1cc(-c2ccnc(C(F)(F)F)c2)nc1C1CCN(c2cc(N)ncn2)CC1 [Compound 167, 6-(4-(1-(2-(methylamino)ethyl)-4-(2-(trifluoromethyl)pyridin-4-yl)-1H-imidazol-2-yl)piperidin-1-yl)pyrimidin-4-amine]",130 nM,> 1000 nM,,

# Results, then the compound that gave them:
IC50 (P70S6K (T412E mutant); read-out: IC50 p70S6K),IC50 (His-AKT (Full Length); read-out: IC50 AKT),IC50 (P70S6K (T412E mutant); read-out: IC50 (p70S6K enzyme)),IC50 (His-AKT (Full Length); read-out: IC50 (AKT enzyme)),SMILES
1.1 nM,2.5 nM,,,"Nc1ncnc(N2CCC(c3nc(-c4ccnc(C(F)(F)F)c4)cn3CCN3CCC3)CC2)c1Cl [Compound 144, 6-(4-(1-(2-(azetidin-1-yl)ethyl)-4-(2-(trifluoromethyl)pyridin-4-yl)-1H-imidazol-2-yl)piperidin-1-yl)-5-chloropyrimidin-4-amine]"
3.8 nM,31 nM,,,"N#Cc1c(N)ncnc1N1CCC(c2nc(-c3ccc(F)c(C(F)(F)F)c3)cn2C[C@@H]2CCN2)CC1 [Compound 146, (S)-4-amino-6-(4-(1-(azetidin-2-ylmethyl)-4-(4-fluoro-3-(trifluoromethyl)phenyl)-1H-imidazol-2-yl)piperidin-1-yl)pyrimidine-5-carbonitrile]"
1.8 nM,2.9 nM,,,"N#Cc1c(N)ncnc1N1CCC(c2nc(-c3ccc(F)c(C(F)(F)F)c3)cn2CC2CCCN2)CC1 (centres unmarked) [Compound 147, 4-amino-6-(4-(4-(4-fluoro-3-(trifluoromethyl)phenyl)-1-(pyrrolidin-2-ylmethyl)-1H-imidazol-2-yl)piperidin-1-yl)pyrimidine-5-carbonitrile]"
4.8 nM,16.5 nM,,,"Nc1ncnc(N2CCC(c3nc(-c4ccc(F)c(C(F)(F)F)c4)cn3CC3CNC3)CC2)c1Cl [Compound 148, 6-(4-(1-(azetidin-3-ylmethyl)-4-(4-fluoro-3-(trifluoromethyl)phenyl)-1H-imidazol-2-yl)piperidin-1-yl)-5-chloropyrimidin-4-amine]"
4.8 nM,38 nM,,,"Nc1ncnc(N2CCC(c3nc(-c4ccc(F)c(C(F)(F)F)c4)cn3C[C@@H]3CCN3)CC2)c1Cl [Compound 149, (S)-6-(4-(1-(azetidin-2-ylmethyl)-4-(4-fluoro-3-(trifluoromethyl)phenyl)-1H-imidazol-2-yl)piperidin-1-yl)-5-chloropyrimidin-4-amine]"
2.2 nM,19 nM,,,"CCc1c(N)ncnc1N1CCC(c2nc(-c3ccc(F)c(C(F)(F)F)c3)cn2CC2CNC2)CC1 [Compound 151, 6-(4-(1-(azetidin-3-ylmethyl)-4-(4-fluoro-3-(trifluoromethyl)phenyl)-1H-imidazol-2-yl)piperidin-1-yl)-5-ethylpyrimidin-4-amine]"
3 nM,480 nM,,,"NC(=O)c1c(N)ncnc1N1CCC(c2nc(-c3ccc(F)c(C(F)(F)F)c3)cn2C2CCNCC2)CC1 [Compound 154, 4-amino-6-(4-(4-(4-fluoro-3-(trifluoromethyl)phenyl)-1-(piperidin-4-yl)-1H-imidazol-2-yl)piperidin-1-yl)pyrimidine-5-carboxamide]"
0.9 nM,160 nM,,,"N#Cc1c(N)ncnc1N1CCC(c2nc(-c3ccc(F)c(C(F)(F)F)c3)cn2C2CCNCC2)CC1 [Compound 155, 4-amino-6-(4-(4-(4-fluoro-3-(trifluoromethyl)phenyl)-1-(piperidin-4-yl)-1H-imidazol-2-yl)piperidin-1-yl)pyrimidine-5-carbonitrile]"
2 nM,190 nM,,,"CCc1c(N)ncnc1N1CCC(c2nc(-c3ccc(F)c(C(F)(F)F)c3)cn2C2CCNCC2)CC1 [Compound 157, 5-ethyl-6-(4-(4-(4-fluoro-3-(trifluoromethyl)phenyl)-1-(piperidin-4-yl)-1H-imidazol-2-yl)piperidin-1-yl)pyrimidin-4-amine]"
1.5 nM,3.6 nM,,,"N#Cc1c(N)ncnc1N1CCC(c2nc(-c3ccc(F)c(C(F)(F)F)c3)cn2CCN)CC1 [Compound 158, 4-amino-6-(4-(1-(2-aminoethyl)-4-(4-fluoro-3-(trifluoromethyl)phenyl)-1H-imidazol-2-yl)piperidin-1-yl)pyrimidine-5-carbonitrile]"
1.5 nM,15 nM,,,"NCCn1cc(-c2ccc(F)c(C(F)(F)F)c2)nc1C1CCN(c2ncnc(N)c2C(N)=O)CC1 [Compound 159, 4-amino-6-(4-(1-(2-aminoethyl)-4-(4-fluoro-3-(trifluoromethyl)phenyl)-1H-imidazol-2-yl)piperidin-1-yl)pyrimidine-5-carboxamide]"
0.73 nM,4.8 nM,,,"Cc1cc(-c2cn(CCN(C)C)c(C3CCN(c4ncnc(N)c4-c4cn[nH]c4)CC3)n2)ccc1F [Compound 163, 6-(4-(1-(2-(dimethylamino)ethyl)-4-(4-fluoro-3-methylphenyl)-1H-imidazol-2-yl)piperidin-1-yl)-5-(1H-pyrazol-4-yl)pyrimidin-4-amine]"
4.4 nM,5.5 nM,,,"Cc1cc(-c2cn(CCN3CCC3)c(C3CCN(c4ncnc(N)c4-c4cn[nH]c4)CC3)n2)ccc1F [Compound 164, 6-(4-(1-(2-(azetidin-1-yl)ethyl)-4-(4-fluoro-3-methylphenyl)-1H-imidazol-2-yl)piperidin-1-yl)-5-(1H-pyrazol-4-yl)pyrimidin-4-amine]"
2.8 nM,5.5 nM,,,"Cc1cc(-c2cn(CCNC(C)(C)C)c(C3CCN(c4ncnc(N)c4-c4cn[nH]c4)CC3)n2)ccc1F [Compound 165, 6-(4-(1-(2-(tert-butylamino)ethyl)-4-(4-fluoro-3-methylphenyl)-1H-imidazol-2-yl)piperidin-1-yl)-5-(1H-pyrazol-4-yl)pyrimidin-4-amine]"
1.3 nM,1.5 nM,,,"CNCCn1cc(-c2ccnc(C(F)(F)F)c2)nc1C1CCN(c2ncnc(N)c2Br)CC1 [Compound 166, 5-bromo-6-(4-(1-(2-(methylamino)ethyl)-4-(2-(trifluoromethyl)pyridin-4-yl)-1H-imidazol-2-yl)piperidin-1-yl)pyrimidin-4-amine]"
